Consider 12 compounds from patent publication US20240150293A1, “SPIROCYCLOHEXANE DERIVATIVES, PHARMACEUTICAL COMPOSITIONS CONTAINING THEM AND THEIR USES AS ANTI-APOPTOTIC INHIBITORS” (LES LABORATOIRES SERVIER, priority 2021, published 2024).

The structures appear in SMILES notation.

Mcl-1 protein, sequence (Q07820 whole entry): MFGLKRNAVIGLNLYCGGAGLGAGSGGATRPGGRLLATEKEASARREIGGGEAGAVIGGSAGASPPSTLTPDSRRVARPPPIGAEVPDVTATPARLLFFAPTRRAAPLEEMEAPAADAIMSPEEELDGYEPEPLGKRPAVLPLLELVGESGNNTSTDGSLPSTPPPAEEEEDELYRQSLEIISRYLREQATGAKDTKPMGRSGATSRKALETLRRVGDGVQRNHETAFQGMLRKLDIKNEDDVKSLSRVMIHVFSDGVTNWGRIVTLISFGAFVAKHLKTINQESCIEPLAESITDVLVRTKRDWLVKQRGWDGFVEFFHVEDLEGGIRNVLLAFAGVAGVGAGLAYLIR

This assay has as its target Mcl-1 protein (UniProtKB Q07820) (Homo sapiens (Human), UniProt Q07820). The experiment in a line: Inhibition of Mcl-1 by the fluorescence polarisation assay (Example A, Method A). It is filed as binding. The settings on record: fluorescence polarization assay. As for the experimental part: The relative binding potency of each compound was determined via Fluorescence Polarisation (FP). The method utilised a Fluorescein labelled ligand (Fluorescein-βAla-Ahx-A-REIGAQLRRMADDLNAQY-OH; MW 2,765) which binds to the Mcl-1 protein (such that Mcl-1 corresponds to the UniProtKB® primary accession number: Q07820) leading to an increased anisotropy measured in milli-polarisation (mP) units using a reader. The addition of a compound which binds competitively to the same site as the ligand will result in a greater proportion of unbound ligand in the system indicated by a decrease in mP units.
An 11 point serial dilution of each compound was prepared in DMSO and 2 μl transferred into flat bottomed, low binding, 384-well plate (final DMSO concentration 5%). 38 μl of buffer containing the Fluorescein labelled ligand (final concentration 1 nM) and Mcl-1 protein (final concentration 5 nM) was then added. Buffer components were 10 mM 4-(2-hydroxyethyl)-1-piperazineethanesulfonic acid [HEPES], 150 mM NaCl, pH 7.4 with the addition of 0.05% Tween 20.
Assay plates were incubated for 2 hours at room temperature before FP was measured on a […] Synergy Neo reader ([…], Cut off 510 nm) and mP units calculated. The binding of increasing doses of test compound was expressed as a percentage reduction in mP compared to a window established between ‘5% DMSO only’ and ‘100% inhibition’ controls. 11-point dose response curves were plotted with XL-Fit software using a 4-Parameter Logistic Model (Sigmoidal Dose-Response Model) and the inhibitory concentrations that gave a 50% reduction in mP (IC50) were determined. The Ki values were determined from the IC50 values according to Cer et al, Nucleic Acids Res, 2009, 37 (WebServer issue): W441-W445. Inhibition constants (Ki) are determined from complete binding inhibition curves (cKi) or from estimated from incomplete binding inhibition curves (eKi) in most cases due to low activity.
On the technique in general: Polarisation of emitted light reports the rotation of a fluorescent probe.
By Ki is commonly meant the equilibrium dissociation constant of an inhibitor or competing ligand from its target. For the compound `COc1ccc([C@H]2Cc3ccccc3[C@]23CC[C@@](Nc2cccc(Cl)c2)(C(=O)O)CC3)cc1` [Example 241, (1r,2′R,4R)-4-(3-chloroanilino)-2′-(4-methoxyphenyl)-2′,3′-dihydrospiro[cyclohexane-1,1′-indene]-4-carboxylic acid], the Ki was 4350 nM. With `O=C(O)[C@]1(Nc2cccc(Cl)c2)CC[C@@]2(CC1)c1ccccc1CC2CCCOc1ccccc1` (stereo partly drawn) [Example 423, (1r,4r)-4-(3-chloroanilino)-2′-(3-phenoxypropyl)-2′,3′-dihydrospiro[cyclohexane-1,1′-indene]-4-carboxylic acid] the figure was 224 nM.

With `Cc1cccc(C2=Cc3ccccc3[C@]23CC[C@@](Nc2cccc(Cl)c2)(C(=O)O)CC3)c1` [Example 335, (1s,4s)-4-(3-chloroanilino)-2′-(3-methylphenyl)spiro[cyclohexane-1,1′-indene]-4-carboxylic acid], the Ki was found to be 889 nM.

For the compound `O=C(O)[C@]1(Nc2cccc(Cl)c2)CC[C@@]2(CC1)c1ccccc1CC2CCCOc1cccc2[nH]cnc12` (stereo partly drawn) [Example 469, (1r,4r)-2′-{3-[(1H-benzimidazol-4-yl)oxy]propyl}-4-(3-chloroanilino)-2′,3′-dihydrospiro[cyclohexane-1,1′-indene]-4-carboxylic acid], the Ki is 324 nM.

Turning to `COc1cc(Cl)cc(C2Cc3ccccc3[C@]23CC[C@@](Nc2cccc(Cl)c2)(C(=O)O)CC3)c1` (single isomer, unassigned) [Example 347, (1r,4r)-4-(3-chloroanilino)-2′-(3-chloro-5-methoxyphenyl)-2′,3′-dihydrospiro[cyclohexane-1,1′-indene]-4-carboxylic acid], the inhibition constant (Ki) turned out to be 1130 nM. The result for `COc1ccc(C2=Cc3ccccc3[C@]23CC[C@@](Nc2cccc(Cl)c2)(C(=O)O)CC3)cc1Cl` [Example 227, (1s,4s)-4-(3-chloroanilino)-2′-(3-chloro-4-methoxyphenyl)spiro[cyclohexane-1,1′-indene]-4-carboxylic acid] reads 1190 nM; that for `Cc1ccc(C2Cc3ccccc3[C@]23CC[C@@](Nc2cccc(Cl)c2)(C(=O)O)CC3)cc1` (single isomer, unassigned) [Example 306, (1r,4r)-4-(3-chloroanilino)-2′-(4-methylphenyl)-2′,3′-dihydrospiro[cyclohexane-1,1′-indene]-4-carboxylic acid], 663 nM; that for `O=C(O)[C@]1(Nc2cccc(Cl)c2)CC[C@]2(CC1)C(CCOc1ccccc1)=Cc1ccccc12` [Example 171, (1r,4r)-4-(3-chloroanilino)-2′-(2-phenoxyethyl)spiro[cyclohexane-1,1′-indene]-4-carboxylic acid], 51.4 nM.

With `Cn1ccc(OCCCC2Cc3ccccc3[C@]23CC[C@@](Nc2cccc(Cl)c2)(C(=O)O)CC3)cc1=O` (stereo partly drawn) [Example 479, (1r,4r)-4-(3-chloroanilino)-2′-{3-[(1-methyl-2-oxo-1,2-dihydropyridin-4-yl)oxy]propyl}-2′,3′-dihydrospiro[cyclohexane-1,1′-indene]-4-carboxylic acid], the inhibitory constant (Ki) worked out at 809 nM. The result for `Cc1ccc(C2=Cc3ccccc3[C@]23CC[C@@](Nc2cccc(Cl)c2)(C(=O)O)CC3)cc1` [Example 297, (1s,4s)-4-(3-chloroanilino)-2′-(4-methylphenyl)spiro[cyclohexane-1,1′-indene]-4-carboxylic acid] reads 2370 nM; that for `Cc1ccc(S(=O)(=O)N2Cc3ccccc3C23CCC(Nc2cccc(Cl)c2)(C(=O)O)CC3)cc1` (single isomer, unassigned) [Example 28, 4-(3-chloroanilino)-2′-(4-methylbenzene-1-sulfonyl)-2′,3′-dihydrospiro[cyclohexane-1,1′-isoindole]-4-carboxylic acid], 14800 nM. With `O=C(O)[C@]1(Nc2cccc(Cl)c2)CC[C@]2(CC1)C(CCCOc1cccc3[nH]ccc13)=Cc1ccccc12` [Example 434, (1r,4r)-4-(3-chloroanilino)-2′-{3-[(1H-indol-4-yl)oxy]propyl}spiro[cyclohexane-1,1′-indene]-4-carboxylic acid] the figure was 93.5 nM.
